This note sets out measurements from PubChem BioAssay AID2060618 (Molecular Pharmacology Branch, DTP, NCI, 2025).

Molecules are shown by their SMILES. “And” between values parts separate entries of the source, which are not always exact repeats. Equal entries are not always repeated. Some results are limits rather than exact numbers.

For this experiment, the system named is 454973-116-R2-J3-PDC spheroids, percent test/control viability. As to the kind of experiment: Anticancer human tumor 454973-116-R2-J3-PDC patient-derived pancreatic carcinoma cell line growth inhibition [CLK]. To be noted: spheroids with HUVEC and MSC; for viability, T/C: stronger effect = lower value. An excerpt:
A high-throughput screen of multi-cell type tumor spheroids was designed to identify active combinations of […] and targeted small molecules. Complex spheroids include a stromal component modeled by human endothelial cells (HUVEC) and fibroblasts modeled by human mesenchymal stem cells (MSCs). The concentration ranges selected for each drug and investigational agent were based upon clinically achievable concentrations if the clinical Cmax of the agent was known.
Compounds. The drugs and investigational agents: cirtuvivint (SM08502; NSC835563), CC-671 (NSC850746), vemurafenib (NSC761431), tapotoclax (NSC804041), sotorasib (NSC818433), adagrasib (NSC831453), MRTX-1133 (NSC836407), BAY2416964 (NSC825713), copanlisib (NSC816437), inavolisib (NSC800729), abemaciclib (NSC768073), osimertinib (NSC779217), entinostat (NSC756642), eltanexor (KPT-8602, NSC794443), venetoclax (NSC766270), ceralasertib (NSC777638), bortezomib (NSC756655), olaparib (NSC753686), talazoparib (NSC767125), alisertib (NSC759677), peposertib (NSC802822), gemcitabine (NSC613327), 5-fluorouracil (NSC19893), SN-38 (NSC673596), oxaliplatin (NSC266046), paclitaxel (NSC125973), and doxorubicin (NSC123127), were obtained from the National Cancer Institute (NCI) Developmental Therapeutics Program Chemical Repository. The FDA-approved anticancer drug set is available from the Developmental Therapeutics Program at https://dtp.cancer.gov/organization/dscb/obtaining/available plates.htm. […] The stock solutions were prepared in dimethyl sulfoxide (DMSO, Sigma-Aldrich, St. Louis, MO, cat. D2650), except for the platinum complexes which were prepared in saline (Quality Biological, Gaithersburg, MD, cat. 114-055-101), at 800-fold the tested concentration and stored at -70 degrees C prior to their use. All drugs and investigational agents were tested over a range starting from a high concentration at or near the clinical Cmax and decreasing in half-log increments. If the clinical Cmax for an agent had not been determined, the highest concentration tested was 10 microM.
Cell Culture. All cells were maintained in an incubator at 37 degrees C and 5% CO2 with 95% humidity. The PDC lines were cultured according to standard operating procedures established by the NCI PDMR. Briefly, all PDCs were thawed and cultured in Matrigel-coated flasks prepared with a working solution of 1X Ham's F-12 nutrient mix, without supplementation (Invitrogen, Waltham, MA, cat. 11765054), 100 U/mL penicillin-streptomycin (Invitrogen, cat. 15140122), and 2.5% Matrigel (Corning Inc., Corning, NY, cat. 354248) for the first three passages. The 947758-054-R-J2-PDC line was cultured in 6B/Colon 1A media, which includes advanced DMEM/F-12 (Thermo Fisher Scientific, cat. 12634028), 10 mM HEPES (Thermo Fisher Scientific, cat. 15630080), 1X GlutaMAX supplement (Thermo Fisher Scientific, cat. 35050061), 0.1 mg/mL primocin (InvivoGen, cat. ant-pm-2), 10% defined fetal bovine serum, heat inactivated (HyClone Laboratories Inc., cat. SH30070.03HI), 1.25 mM N-Acetyl-L-cysteine (Sigma-Aldrich, cat. A9165), 10 mM nicotinamide (Sigma-Aldrich, cat. N0636), 1X B-27 supplement (Thermo Fisher Scientific, cat. 17504044), 1X N-2 supplement (Thermo Fisher Scientific, cat. 17502048), and 10 microM Y-27632 dihydrochloride (Tocris Bioscience, cat. 1254). The 876862-298-R-J1-PDC was cultured in 6E media, which includes all 6B/Colon 1A media components plus 50% L-WRN conditioned media (ATCC, cat. CRL-3276), 50 ng/mL recombinant human EGF recombinant protein (hEGF; Thermo Fisher Scientific, cat. PHG0311), 10 ng/mL recombinant human fibroblast growth factor 10 (hGFG-10; PeproTech, cat. 100-26), 1 ng/mL recombinant human fibroblast growth factor 2 (hFGF-2; PeproTech, cat. 100-18B), and 1 µM prostaglandin E2 (PGE2; Tocris, cat. 2296). The 227483-062-R1-J1-PDC line was cultured in Panc media, containing all 6E components except hFGF-2, with the addition of 500 nM SB-431542 (Selleckchem, cat. S1067) and 10 nM gastrin (Tocris, cat. 3006). […]
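Also: spheroids exposed to compounds for 7 days before readout.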

`C=CC(=O)Nc1cc(Nc2nccc(-c3cn(C)c4ccccc34)n2)c(OC)cc1N(C)CCN(C)C`: the viability, T/C was 104% and 111% (compound 0.000949 µM); 107% and 98.9% (compound 0.003 µM); 97.8% and 95% (compound 0.00949 µM); 105% and 108% (compound 0.03 µM); 115% and 111% (compound 0.0949 µM); 109% and 100% (compound 0.3 µM). In addition, the 50% inhibitory concentration (IC50) (curve of compound) is over 0.3 µM.

As for `CC(C)CC(NC(=O)C(Cc1ccccc1)NC(=O)c1cnccn1)B(O)O` (stereo not given), the viability, T/C was 106% and 104% (compound 0.000949 µM); 47.9% and 34.1% (compound 0.003 µM); 0.32% and 0.38% (compound 0.00949 µM); 0.21% and 1.51% (compound 0.03 µM); 0.12% and 2.95% (compound 0.0949 µM); 0.11% and 1.42% (compound 0.3 µM). For the same compound, the IC50 (curve of compound) was 0.00288 µM and 0.00231 µM.

As to `CCCS(=O)(=O)Nc1ccc(F)c(C(=O)c2c[nH]c3ncc(-c4ccc(Cl)cc4)cc23)c1F`, the viability, T/C reads like this: (compound 0.0316 µM) 99.6% and 110%; (compound 0.1 µM) 103% and 101%; (compound 0.316 µM) 112% and 105%; (compound 1 µM) 102% and 103%; (compound 3.16 µM) 108% and 101%; (compound 10 µM) 39.4% and 25.2%. In addition, the IC50 (curve of compound) is 8.3 µM and 6.87 µM.

With `CCN1CCN(Cc2ccc(Nc3ncc(F)c(-c4cc(F)c5nc(C)n(C(C)C)c5c4)n3)nc2)CC1`, the viability, T/C is, setting by setting: (compound 0.00316 µM) 95.9% and 106%; (compound 0.01 µM) 99.1% and 87.2%; (compound 0.0316 µM) 89.6% and 75.1%; (compound 0.1 µM) 75.3% and 70.8%; (compound 0.316 µM) 60.3% and 65%; (compound 1 µM) 62.7% and 64.3%. Also, the IC50 (curve of compound) was over 1 µM.

For the compound `CCc1c2c(nc3ccc(O)cc13)-c1cc3c(c(=O)n1C2)COC(=O)[C@]3(O)CC`, the viability, T/C was 39.9% and 31.5% (compound 0.00316 µM); 15.9% and 14.3% (compound 0.01 µM); 12% and 13% (compound 0.0316 µM); 6.22% and 7.38% (compound 0.1 µM); 2.81% and 3.92% (compound 0.316 µM); 1.02% and 3.21% (compound 1 µM). The IC50 (curve of compound) was under 0.00316 µM.

On to `CN1CCN(c2cc(C(=O)Nc3cc4cc(-c5cnn(C)c5)ccc4cn3)ccn2)CC1`, for which the viability, T/C by setting is: (compound 0.0316 µM) 102% [middle of 12 runs]; (compound 0.1 µM) 81.8% [middle of 12 runs]; (compound 0.316 µM) 2.31% [middle of 11 runs]; (compound 1 µM) 0.41% [middle of 10 runs]; (compound 3.16 µM) 0.23% [middle of 9 runs]; (compound 10 µM) 0.25% [middle of 10 runs]. Besides, the IC50 (compound alone, run of 09/18/2023) was 159 nM [middle of 9 runs].

As for `CNC(=O)c1ccc(Nc2nc(OC3CCCC3)c3c(-c4ccc5nc(C)oc5c4)c[nH]c3n2)c(OC)c1`, the viability, T/C (compound 0.0316 µM) is 106% [middle of 12 runs]; the viability, T/C (compound 0.1 µM) was 104% [middle of 12 runs]; the viability, T/C (compound 0.316 µM) is 47.8% [middle of 12 runs]; the viability, T/C (compound 1 µM) is 30.7% [middle of 12 runs]; the viability, T/C (compound 3.16 µM) is 26.1% [middle of 12 runs]; the viability, T/C (compound 10 µM) is 28.5% [middle of 11 runs]. Further, the IC50 (compound alone, run of 09/19/2023) was 302 nM [middle of 12 runs].

For `COc1c(OCCCN2CCOCC2)ccc2c3n(c(=NC(=O)c4cnc(N)nc4)nc12)CCN3`, the viability, T/C was 97.1% and 109% (compound 0.00316 µM); 98.4% and 90.9% (compound 0.01 µM); 99.2% and 75.2% (compound 0.0316 µM); 44% and 39% (compound 0.1 µM); 23.6% and 20.3% (compound 0.316 µM); 8.06% and 7.21% (compound 1 µM). Further, the half-maximal inhibitory concentration (IC50) (curve of compound) is 0.0884 µM and 0.0724 µM.

In the case of `Cn1ncnc1[C@H]1c2n[nH]c(=O)c3cc(F)cc(c23)N[C@@H]1c1ccc(F)cc1`, the viability, T/C (compound 0.000316 µM) was 100% and 113%; the viability, T/C (compound 0.001 µM) was 96.3% and 104%; the viability, T/C (compound 0.00316 µM) is 105% and 102%; the viability, T/C (compound 0.01 µM) was 93.3% and 96.9%; the viability, T/C (compound 0.0316 µM) is 93.7% and 87.6%; the viability, T/C (compound 0.1 µM) is 91.9% and 89.7%. For the same compound, the IC50 (curve of compound) was over 0.1 µM.

Consider `NC(=O)C(=Cn1cnc(-c2cc(C(F)(F)F)cc(C(F)(F)F)c2)n1)c1cncnc1`, for which the viability, T/C reads like this: (compound 0.00949 µM) 97.3% and 100%; (compound 0.03 µM) 97% and 95.2%; (compound 0.0949 µM) 83.1% and 78.2%; (compound 0.3 µM) 63.3% and 48.4%; (compound 0.949 µM) 42.4% and 35.4%; (compound 3 µM) 21.7% and 10.8%. The 50% inhibitory concentration (IC50) (curve of compound) was 0.614 µM and 0.362 µM.
